Experimental data published in PubChem BioAssay (NCI).
“And” between values parts separate entries of the source, which are not always exact repeats. Equal entries are not always repeated.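 Interpolation was linear, between the two tested concentrations surrounding the appropriate level; five concentrations were tested over 48 hours in 96-well plates. GI50 = concentration required for 50% inhibition of growth. TGI denotes the concentration required for complete inhibition of growth.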

Legend:
Assay in all cases: DTP human tumour cell line panel, 48 h
[1] = tested on: UACC-62 melanoma
[2] = tested on: SNB-75 CNS
[3] = tested on: SN12C renal
[4] = tested on: NCI-H23 lung
[5] = tested on: UACC-257 melanoma
[6] = tested on: IGROV1 ovarian
[7] = tested on: OVCAR-8 ovarian
[8] = tested on: M14 melanoma
[9] = tested on: MALME-3M melanoma
[10] = tested on: MDA-MB-435

SMILES | GI50 [1] | TGI [1] | GI50 [2] | TGI [2] | GI50 [3] | TGI [3] | GI50 [4] | TGI [4] | GI50 [5] | TGI [5] | GI50 [6] | TGI [6] | GI50 [7] | TGI [7] | GI50 [8] | TGI [8] | GI50 [9] | TGI [9] | GI50 [10] | TGI [10]
CCC(c1ccccc1)c1noc(CCN(CC)CC)n1 (stereo unspecified) | 43.2 µM | > 100 µM | 21.7 µM | > 100 µM | 27.1 µM | > 94.8 µM | 63.3 µM | > 100 µM | > 51.2 µM | > 100 µM | > 48.5 µM | > 92.1 µM | 32.5 µM | > 100 µM | 28.8 µM | > 100 µM | 30.2 µM | > 100 µM | 23.8 µM | > 78.8 µM
Nc1nccc(-c2c(-c3ccc(F)cc3)nn3cc(C(F)(F)F)ccc23)n1 | > 25 µM | > 25 µM | > 19.7 µM | > 25 µM | > 25 µM | > 25 µM | > 25 µM | > 25 µM | > 25 µM | > 25 µM | > 25 µM | > 25 µM | > 25 µM | > 25 µM | > 25 µM | > 25 µM | > 25 µM | > 25 µM | > 25 µM | > 25 µM
CN(C)c1ccc(-c2cc(-c3ccc(Nc4nc(Nc5ccc(Cl)cc5)nc(Nc5ccc(Cl)cc5)n4)cc3)nc(N)c2C#N)cc1 | 20.4 µM | 92.7 µM | 3.05 µM | > 100 µM | 13.8 µM | > 100 µM | 30.5 µM | > 100 µM | 12.3 µM | > 100 µM | 4.53 µM | > 100 µM | 6.38 µM | > 100 µM | 18.3 µM | > 100 µM | 69.4 µM | > 100 µM | 27.9 µM | > 100 µM
CC[C@H](C)[C@H](NC(=O)[C@H]1CCCCN1C)C(=O)N(C)[C@H](C[C@@H](OC(C)=O)c1nc(C(=O)NC23CC(C(=O)OC)(C2)C3)cs1)C(C)C | 0.000614 µM and 0.00325 µM | > 32.5 µM | 0.000382 µM and 0.00325 µM | > 32.5 µM | 0.000654 µM and 0.00325 µM | > 32.5 µM | 0.00511 µM and 0.00325 µM | > 32.5 µM |  |  | 0.00132 µM and 0.00325 µM | > 32.5 µM | 0.00056 µM and 0.00325 µM | > 32.5 µM | 0.00554 µM and 0.00325 µM | 0.00618 µM | 0.00756 µM and 0.0305 µM | > 32.5 µM | 0.000137 µM and < 0.00325 µM | 0.00104 µM and < 0.00325 µM
CCO/C=C1\SC(=S)N(c2ccc(OCC)cc2)C1=O |  | > 100 µM |  | > 100 µM |  | > 100 µM |  | > 100 µM |  | > 100 µM |  | > 100 µM |  | > 100 µM |  | > 100 µM |  | > 100 µM |  | > 100 µM
CCCCCC(=O)O[C@]1(C(C)=O)CCC2C3CCC4=CC(=O)CC[C@]4(C)C3CC[C@@]21C (stereo partly specified) | 1.63 µM | 3.88 µM | 2.15 µM | 12.6 µM | 1.6 µM | 3.37 µM | 2.46 µM | 9.97 µM | 3.15 µM | 12.6 µM | 2.7 µM | 11.4 µM | 2.61 µM | 10.7 µM | 2.55 µM | 6.85 µM | 2.18 µM | 6.05 µM | 3.25 µM | 13.1 µM
COc1cc2nnc3c4cccnc4[nH]c3c2cc1OC | 2.9 µM and 2.49 µM | 12.5 µM and 9.65 µM | 2.35 µM and 1.48 µM | 21.9 µM and 7.45 µM | 1.9 µM and 2.27 µM | 19.2 µM and 8.47 µM | 11.1 µM and 2.34 µM | 40.5 µM and 6.71 µM | 9.13 µM and 3.32 µM | 50 µM and 27.7 µM | 1.02 µM and 1.73 µM | 19.4 µM and 5.83 µM | 3.91 µM and 1.25 µM | 50 µM and > 100 µM | 8.18 µM and 1.79 µM | 27.4 µM and 3.49 µM | 7.54 µM and 2.28 µM | 22.9 µM and 5.68 µM | 5.66 µM and 2.23 µM | 38.7 µM and 6.96 µM
Cc1ccc(S(=O)(=O)NCCCCC(N)C(=O)O)cc1 (stereo unspecified) |  | > 100 µM |  | > 100 µM |  | > 100 µM |  | > 100 µM |  | > 100 µM |  | > 100 µM |  | > 100 µM |  | > 100 µM |  | > 100 µM |  | > 100 µM
Cc1cc(Cl)nc(N(CCNc2ccnc3cc(Cl)ccc23)Cc2ccco2)n1 | 1.69 µM | 3.27 µM | 1.57 µM | 4.18 µM | 1.98 µM | 3.95 µM | 2.57 µM | 9.65 µM | 1.97 µM | 4.16 µM | 1.75 µM | 3.66 µM | 1.93 µM | 4.29 µM | 1.88 µM | 3.63 µM | 1.96 µM | 3.57 µM | 1.76 µM | 3.4 µM
O=C(COc1ccc(/C=C2\Oc3ccccc3C2=O)cc1)Nc1nc2ccccc2s1 | 42 µM | > 100 µM | 1.99 µM | > 45.5 µM | 10.5 µM | > 100 µM | 18.8 µM | > 100 µM | 8.24 µM | 45.2 µM |  |  | 0.321 µM | > 100 µM | 38.4 µM | > 100 µM | 3.94 µM | > 100 µM | 8.21 µM | > 100 µM
Nc1nc(=S)c2ncn(C3OC(COP(=O)(O)O)C(O)C3O)c2[nH]1 (stereo unspecified) | 0.539 µM | 6.14 µM | 0.96 µM | > 100 µM | 3.66 µM | > 100 µM | 1.93 µM | > 100 µM | 4.57 µM | > 100 µM | 5.23 µM | > 100 µM | 0.715 µM | > 100 µM | 0.503 µM | 32.8 µM | 1.81 µM | 75 µM | 2.48 µM | > 100 µM
CSc1nc2nc(-c3ccccc3)c(C)c-2c2n1C(C)C(=O)N2 (stereo unspecified) | 18.6 µM | 45.2 µM | 43.2 µM | > 100 µM | 52.6 µM | > 100 µM |  |  | 51.3 µM | > 100 µM | 41.5 µM | > 100 µM | 45.7 µM | > 100 µM | 38.6 µM | > 100 µM | 43.1 µM | > 100 µM | 32.9 µM | > 100 µM
C(=Nc1nc(SCc2ccccc2)nc2[nH]ncc12)c1cccs1 | 25.4 µM | 61.8 µM | > 100 µM | > 100 µM | > 100 µM | > 100 µM | 66.4 µM | > 100 µM | 53.7 µM | > 100 µM | > 100 µM | > 100 µM | 39.6 µM | > 100 µM | 34.7 µM | > 100 µM | 42.9 µM | > 100 µM | 41.6 µM | > 100 µM
COc1ccccc1Oc1nccc(-c2c(-c3ccc(F)cc3)ncn2C2CCNCC2)n1 | > 25 µM | > 25 µM | > 16.6 µM | > 25 µM | > 25 µM | > 25 µM |  |  |  |  | > 22.6 µM | > 25 µM | > 25 µM | > 25 µM | > 19.1 µM | > 25 µM | > 25 µM | > 25 µM | > 24.1 µM | > 25 µM
O=C(Nc1ccc(OC(F)(F)Cl)cc1)c1cnc(N2CC[C@@H](O)C2)c(-c2ccn[nH]2)c1 | 5.07 µM | 19.5 µM | 12.7 µM | 26.5 µM | 12.6 µM | 28.9 µM | 13.6 µM | 33.5 µM | 10.5 µM | 22.6 µM | 15.2 µM | 41.1 µM | 10.8 µM | 54.6 µM | 4.52 µM | 18.3 µM | 12.5 µM | 26 µM | 7.3 µM | 21.7 µM
COc1cc(OC)c(OC)cc1/C=C/c1nc2ccccc2s1 |  |  |  | > 100 µM |  | > 100 µM |  | > 100 µM |  | > 100 µM |  | > 100 µM |  | > 100 µM |  | > 100 µM |  | > 100 µM |  | 15.1 µM
CC(=O)O[C@H]1CC2C(C3CC[C@H](C(C)CCC(=O)O)[C@]31C)[C@H](OC(C)=O)C[C@@H]1CC3(CC[C@]21C)OOC1(CCC(C)CC1)OO3 (stereo partly specified) |  |  |  | 6.81 µM |  | 18.3 µM and 9.27 µM |  | 15.8 µM and 5.43 µM |  | 24.8 µM and 24.3 µM |  | 4.64 µM and 2.76 µM |  | 14.1 µM and 5.66 µM |  | 19.3 µM and 10.9 µM | 12.5 µM and 2.73 µM | 28.3 µM and 8.04 µM |  | 18.7 µM and 7.76 µM
CC(C)[C@@H]1CC[C@]2(CO2)[C@@H]2C(=O)OCC(C(=O)O)=C[C@H]21 | 0.221 µM | 0.578 µM | 0.422 µM | > 100 µM | 0.32 µM | > 20.1 µM | 1.35 µM | 8.41 µM |  |  | 0.442 µM | 8.73 µM | 0.351 µM | > 100 µM | 0.273 µM | 0.898 µM | 0.305 µM | 5.31 µM | 0.355 µM | 6.72 µM
CCc1ccc(Nc2cc(C)c3ccc(O)cc3n2)cc1 | 8.57 µM | 22.1 µM | 11.3 µM | 24.8 µM | 6.24 µM | 23.5 µM | 3.34 µM | 15.6 µM |  |  | 6.14 µM | 20.8 µM | 10.8 µM | 35.3 µM | 5.42 µM | 18.1 µM | 6.19 µM | 19 µM | 6.94 µM | 20.3 µM
COC12C(COC(=O)NCCO)C3=C(C(=O)C(C)=C(N)C3=O)N1CC1NC12 (stereo unspecified) |  | 49.9 µM |  |  | 34.4 µM | > 264 µM | 10.3 µM | 22.7 µM and 51.3 µM | 79.1 µM | 238 µM | 39.8 µM | 116 µM | 55 µM | > 264 µM | 49.9 µM | > 264 µM | 45.3 µM | 64 µM and 101 µM |  | > 264 µM
